ChEMBL document CHEMBL1201862, “PubChem BioAssay data set” (2004)
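Compound exposure: 48 hours, 5 concentrations, 96-well plates. GI50 is the concentration that inhibits growth by half.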 Calls of active or inactive are those of the source. Cut-off read from the data, not from the text of the source: active = GI50 up to about 1.1 µM and inactive = higher.

Columns and labels:
Test in all cases: DTP human tumour cell line panel, 48 h
SNB-19 = test system: SNB-19
UO-31 = test system: UO-31
RPMI-8226 = test system: RPMI-8226
MCF7 = test system: MCF7
SN12C = test system: SN12C
ACHN = test system: ACHN
COLO 205 = test system: COLO 205
TK-10 = test system: TK-10
LOX IMVI = test system: LOX IMVI
SR = test system: SR
IGROV-1 = test system: IGROV-1
SF-539 = test system: SF-539
MDA-MB-435 = test system: MDA-MB-435
A549 = test system: A549
HOP-62 = test system: HOP-62
SW-620 = test system: SW-620
HCT-15 = test system: HCT-15
MDA-N = test system: MDA-N
CCRF-CEM = test system: CCRF-CEM

Structure (SMILES) | GI50 (SNB-19) | GI50 (UO-31) | GI50 (RPMI-8226) | GI50 (MCF7) | GI50 (SN12C) | GI50 (ACHN) | GI50 (COLO 205) | GI50 (TK-10) | GI50 (LOX IMVI) | GI50 (SR) | GI50 (IGROV-1) | GI50 (SF-539) | GI50 (MDA-MB-435) | GI50 (A549) | GI50 (HOP-62) | GI50 (SW-620) | GI50 (HCT-15) [µM] | GI50 (MDA-N) | GI50 (CCRF-CEM)
NCCSc1nc(-c2ccccc2)c(-c2ccccc2)o1 | > 100 µM (inactive) | > 100 µM (inactive) | 88.3 µM (inactive) | > 100 µM (inactive) | 77.8 µM (inactive) | > 100 µM (inactive) | > 100 µM (inactive) | 15.3 µM (inactive) | > 100 µM (inactive) | 7.38 µM (inactive) | 71.4 µM (inactive) | > 100 µM (inactive) | > 100 µM (inactive) | > 100 µM (inactive) | > 100 µM (inactive) | > 100 µM (inactive) | > 100 |  | 
COc1cccc2c1C(=O)c1c(O)c3c(c(O)c1C2=O)C[C@@](O)(C(=O)CO)C[C@@H]3OC1CC(N(C)C)C(O)C(C)O1 (stereo partly drawn) | 0.0254 µM (active) | 0.0204 µM (active) | < 0.0175 µM (active) |  | 0.0189 µM (active) | < 0.01 µM (active) | < 0.01 µM (active) | 0.0303 µM (active) | < 0.01 µM (active) | < 0.01 µM (active) | < 0.0104 µM (active) | < 0.01 µM (active) | < 0.01 µM (active) | < 0.01 µM (active) | 0.0272 µM (active) | < 0.01 µM (active) | 0.0182 | < 0.01 µM (active) | 0.0991 µM (active)
CC(=O)/C(=C/n1ccc(=O)[nH]c1=S)C(=O)Nc1ccccc1C | > 100 µM (inactive) | > 100 µM (inactive) |  | > 100 µM (inactive) | > 100 µM (inactive) | > 100 µM (inactive) | > 100 µM (inactive) | > 100 µM (inactive) | > 100 µM (inactive) |  | > 100 µM (inactive) | > 100 µM (inactive) | > 100 µM (inactive) | > 100 µM (inactive) | > 100 µM (inactive) | > 100 µM (inactive) | > 100 | > 100 µM (inactive) | 
COc1c(OC)c(OC)c2c(=O)c(OC)c(-c3ccc4c(c3)OCO4)oc2c1OC | > 100 µM (inactive) | 57.8 µM (inactive) |  | > 100 µM (inactive) | > 100 µM (inactive) | 68.7 µM (inactive) | > 100 µM (inactive) | > 100 µM (inactive) | > 100 µM (inactive) |  | > 100 µM (inactive) | > 100 µM (inactive) | 82.4 µM (inactive) | 53.2 µM (inactive) | > 100 µM (inactive) | > 100 µM (inactive) | 78.5 | > 100 µM (inactive) | 23.8 µM (inactive)
Cc1c/c(=N/NC(=O)c2ccncc2)n2nc(N)sc2n1 | > 100 µM (inactive) | > 100 µM (inactive) | > 100 µM (inactive) | > 100 µM (inactive) | > 100 µM (inactive) | > 100 µM (inactive) | > 100 µM (inactive) |  | > 100 µM (inactive) | > 100 µM (inactive) | > 100 µM (inactive) | > 100 µM (inactive) | > 100 µM (inactive) | > 100 µM (inactive) | > 100 µM (inactive) | > 100 µM (inactive) | > 100 |  | > 100 µM (inactive)
COC(C)(C)OCCN1CCN(CCN2C3=C(C=C(C(C)=O)C3)Sc3ccccc32)CC1 | 32.1 µM (inactive) | 25.1 µM (inactive) | 14.3 µM (inactive) |  | 26.7 µM (inactive) | 18.1 µM (inactive) | 17.6 µM (inactive) | 19.2 µM (inactive) | 20.7 µM (inactive) | 15.6 µM (inactive) | 20 µM (inactive) | 20.1 µM (inactive) | 16 µM (inactive) | 32.6 µM (inactive) | 19.4 µM (inactive) | 17.5 µM (inactive) | 19.6 | 19 µM (inactive) | 15.2 µM (inactive)
COC(C)(C)[C@@H]1CCCN1C1=C(C)C(=O)OC1 | > 100 µM (inactive) | > 100 µM (inactive) | > 100 µM (inactive) | > 100 µM (inactive) | > 100 µM (inactive) | > 100 µM (inactive) | > 100 µM (inactive) |  | > 100 µM (inactive) | > 100 µM (inactive) | > 100 µM (inactive) | > 100 µM (inactive) |  |  | > 100 µM (inactive) |  | > 100 | > 100 µM (inactive) | > 100 µM (inactive)
Cc1ccnc(NC(=S)Nc2cccc(Cl)c2)c1 | > 100 µM (inactive) | > 100 µM (inactive) | > 100 µM (inactive) | > 100 µM (inactive) | > 100 µM (inactive) |  | > 100 µM (inactive) | > 100 µM (inactive) | > 100 µM (inactive) | > 100 µM (inactive) | 10.5 µM (inactive) | > 100 µM (inactive) | > 100 µM (inactive) | > 100 µM (inactive) | 78.9 µM (inactive) | > 100 µM (inactive) | > 100 |  | > 100 µM (inactive)
Cc1ccc(/C=C/C(=O)c2ccc(Cl)c(Cl)c2)cc1 | > 100 µM (inactive) | > 100 µM (inactive) |  |  | > 100 µM (inactive) | > 100 µM (inactive) | > 100 µM (inactive) | > 100 µM (inactive) | > 100 µM (inactive) | > 100 µM (inactive) | > 100 µM (inactive) |  |  | > 100 µM (inactive) | > 100 µM (inactive) | > 100 µM (inactive) |  |  | > 100 µM (inactive)
O=Cc1ccc(OC[C@H]2COC(=O)N2)cc1 | > 100 µM (inactive) | > 100 µM (inactive) |  | > 100 µM (inactive) | > 100 µM (inactive) | > 100 µM (inactive) | 72.4 µM (inactive) | > 100 µM (inactive) | > 100 µM (inactive) | > 100 µM (inactive) | > 100 µM (inactive) | > 100 µM (inactive) | > 100 µM (inactive) | 47.9 µM (inactive) | > 100 µM (inactive) | > 100 µM (inactive) | > 100 |  | > 100 µM (inactive)
N#Cc1cnn2cc[nH]c12 | > 100 µM (inactive) | > 100 µM (inactive) |  | > 100 µM (inactive) | > 100 µM (inactive) | > 100 µM (inactive) | > 100 µM (inactive) | > 100 µM (inactive) |  | > 100 µM (inactive) | > 100 µM (inactive) | 10 µM (inactive) |  | > 100 µM (inactive) | > 100 µM (inactive) | > 100 µM (inactive) | > 100 | > 100 µM (inactive) | > 100 µM (inactive)
O=C(NCCO)Nc1c(C(F)(F)F)cc(-c2ccccc2)[nH]c1=O | > 100 µM (inactive) | > 100 µM (inactive) | > 100 µM (inactive) | > 100 µM (inactive) | > 100 µM (inactive) | > 100 µM (inactive) | > 100 µM (inactive) | > 100 µM (inactive) | > 100 µM (inactive) |  | > 100 µM (inactive) |  | > 100 µM (inactive) | > 100 µM (inactive) | > 100 µM (inactive) | > 100 µM (inactive) | > 100 | > 100 µM (inactive) | > 100 µM (inactive)
